Measurements from ChEMBL document CHEMBL5291721, “A preclinical secondary pharmacology resource illuminates target-adverse drug reaction associations of marketed drugs” (Nat Commun, 2023).

Columns and labels:
[1] = molecular target: Glutamate receptor ionotropic, NMDA 1 (Rattus norvegicus, UniProt P35439)
[2] = molecular target: Beta-1 adrenergic receptor (Homo sapiens, UniProt P08588); type: functional
[3] = molecular target: Gamma-aminobutyric acid receptor subunit alpha-1 (Rattus norvegicus, UniProt P62813); type: functional
[4] = molecular target: D(3) dopamine receptor (Homo sapiens, UniProt P35462)
[5] = molecular target: Mu-type opioid receptor (Homo sapiens, UniProt P35372); experiment: biochemical; type: functional
[6] = molecular target: Voltage-gated inwardly rectifying potassium channel KCNH2 (Homo sapiens, UniProt Q12809); type: functional
[7] = molecular target: T1, Equilibrative nucleoside transporter 1 (Homo sapiens, UniProt Q99808)
T1 sequence (Q99808 whole entry): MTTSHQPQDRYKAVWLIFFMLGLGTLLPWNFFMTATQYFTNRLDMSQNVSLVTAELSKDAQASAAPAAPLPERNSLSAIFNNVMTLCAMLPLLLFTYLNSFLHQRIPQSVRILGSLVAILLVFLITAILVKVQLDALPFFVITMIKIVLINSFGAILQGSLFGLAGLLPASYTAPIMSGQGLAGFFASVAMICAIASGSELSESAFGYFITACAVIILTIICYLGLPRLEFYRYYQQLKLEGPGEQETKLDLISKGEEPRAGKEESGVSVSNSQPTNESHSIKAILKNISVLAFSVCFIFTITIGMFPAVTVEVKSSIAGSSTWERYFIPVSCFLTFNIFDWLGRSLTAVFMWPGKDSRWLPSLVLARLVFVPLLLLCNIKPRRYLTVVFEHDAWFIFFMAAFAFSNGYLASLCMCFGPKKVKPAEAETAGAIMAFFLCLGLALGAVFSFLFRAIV

[8] = molecular target: Beta-2 adrenergic receptor (Homo sapiens, UniProt P07550)
[9] = molecular target: T2, Muscarinic acetylcholine receptor M2 (Homo sapiens, UniProt P08172); type: functional, cell-based
T2 sequence (P08172 whole entry): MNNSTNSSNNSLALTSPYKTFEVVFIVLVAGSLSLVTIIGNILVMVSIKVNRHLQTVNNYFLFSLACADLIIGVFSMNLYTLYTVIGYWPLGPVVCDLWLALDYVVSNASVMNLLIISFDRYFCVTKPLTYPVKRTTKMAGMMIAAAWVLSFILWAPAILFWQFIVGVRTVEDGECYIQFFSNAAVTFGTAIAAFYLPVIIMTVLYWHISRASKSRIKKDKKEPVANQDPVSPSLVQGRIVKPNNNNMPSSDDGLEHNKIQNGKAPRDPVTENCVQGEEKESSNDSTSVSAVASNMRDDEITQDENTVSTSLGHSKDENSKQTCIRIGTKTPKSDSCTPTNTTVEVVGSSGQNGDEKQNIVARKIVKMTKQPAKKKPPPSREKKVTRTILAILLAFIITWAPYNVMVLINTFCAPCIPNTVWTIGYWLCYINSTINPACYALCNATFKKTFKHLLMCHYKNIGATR

[10] = molecular target: T3, Alpha-1A adrenergic receptor (Homo sapiens, UniProt P35348); type: functional, cell-based
T3 sequence (P35348 whole entry): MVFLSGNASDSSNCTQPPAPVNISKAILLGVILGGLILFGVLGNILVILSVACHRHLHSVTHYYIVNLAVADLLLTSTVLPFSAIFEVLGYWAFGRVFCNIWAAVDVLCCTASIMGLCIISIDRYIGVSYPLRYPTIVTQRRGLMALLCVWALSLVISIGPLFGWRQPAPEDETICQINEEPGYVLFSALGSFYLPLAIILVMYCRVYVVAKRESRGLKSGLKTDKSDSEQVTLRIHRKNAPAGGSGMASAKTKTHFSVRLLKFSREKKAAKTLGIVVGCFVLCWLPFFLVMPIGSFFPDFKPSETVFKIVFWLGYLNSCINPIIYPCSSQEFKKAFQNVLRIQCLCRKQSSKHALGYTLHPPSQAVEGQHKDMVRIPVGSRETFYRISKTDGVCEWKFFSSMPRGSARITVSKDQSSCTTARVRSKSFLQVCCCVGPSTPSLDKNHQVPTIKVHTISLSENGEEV

[11] = molecular target: T4, Cholecystokinin receptor type A (Homo sapiens, UniProt P32238)
T4 sequence (P32238 whole entry): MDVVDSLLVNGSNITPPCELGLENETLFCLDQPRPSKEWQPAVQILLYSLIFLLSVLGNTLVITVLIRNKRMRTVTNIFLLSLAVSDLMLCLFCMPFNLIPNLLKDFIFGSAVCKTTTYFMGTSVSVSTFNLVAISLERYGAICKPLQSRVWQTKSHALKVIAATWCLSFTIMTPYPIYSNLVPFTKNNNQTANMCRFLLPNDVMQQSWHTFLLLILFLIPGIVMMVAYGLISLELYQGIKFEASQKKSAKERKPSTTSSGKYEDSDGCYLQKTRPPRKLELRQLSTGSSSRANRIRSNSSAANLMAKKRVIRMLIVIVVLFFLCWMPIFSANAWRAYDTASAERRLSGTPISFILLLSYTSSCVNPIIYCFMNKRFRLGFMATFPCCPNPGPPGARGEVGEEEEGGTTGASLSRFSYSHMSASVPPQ

[12] = molecular target: Melanocortin receptor 3 (Homo sapiens, UniProt P41968)
[13] = molecular target: Muscarinic acetylcholine receptor M3 (Homo sapiens, UniProt P20309)
[14] = molecular target: Sodium-dependent serotonin transporter (Homo sapiens, UniProt P31645)
[15] = molecular target: 5-hydroxytryptamine receptor 2A (Homo sapiens, UniProt P28223); type: functional, cell-based
Also: assay procedure not described here.

Sequence of D(3) dopamine receptor (P35462 whole entry): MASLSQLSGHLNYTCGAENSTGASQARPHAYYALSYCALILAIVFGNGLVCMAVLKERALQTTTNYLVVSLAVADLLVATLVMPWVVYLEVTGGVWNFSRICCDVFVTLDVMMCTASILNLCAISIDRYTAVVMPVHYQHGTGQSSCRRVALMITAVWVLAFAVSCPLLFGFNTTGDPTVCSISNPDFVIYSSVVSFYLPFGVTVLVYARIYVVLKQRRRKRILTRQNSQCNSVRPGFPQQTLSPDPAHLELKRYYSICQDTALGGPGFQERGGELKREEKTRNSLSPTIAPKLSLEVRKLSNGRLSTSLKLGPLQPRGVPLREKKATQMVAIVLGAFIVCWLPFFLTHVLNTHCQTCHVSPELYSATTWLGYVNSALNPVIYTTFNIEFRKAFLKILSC
Sequence of Beta-1 adrenergic receptor (P08588 whole entry): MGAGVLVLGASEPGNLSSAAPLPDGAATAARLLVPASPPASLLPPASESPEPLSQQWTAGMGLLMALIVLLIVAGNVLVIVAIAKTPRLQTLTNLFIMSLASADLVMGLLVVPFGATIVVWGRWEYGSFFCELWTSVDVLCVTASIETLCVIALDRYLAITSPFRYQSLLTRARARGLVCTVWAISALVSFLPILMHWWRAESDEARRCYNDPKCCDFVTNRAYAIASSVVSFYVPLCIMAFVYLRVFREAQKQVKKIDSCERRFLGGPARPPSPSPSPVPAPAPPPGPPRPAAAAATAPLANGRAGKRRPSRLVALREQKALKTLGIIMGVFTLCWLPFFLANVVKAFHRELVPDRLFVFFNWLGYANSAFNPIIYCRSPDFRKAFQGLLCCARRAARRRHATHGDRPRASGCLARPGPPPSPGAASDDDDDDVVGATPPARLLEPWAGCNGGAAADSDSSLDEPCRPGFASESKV
Sequence of Voltage-gated inwardly rectifying potassium channel KCNH2 (Q12809 whole entry): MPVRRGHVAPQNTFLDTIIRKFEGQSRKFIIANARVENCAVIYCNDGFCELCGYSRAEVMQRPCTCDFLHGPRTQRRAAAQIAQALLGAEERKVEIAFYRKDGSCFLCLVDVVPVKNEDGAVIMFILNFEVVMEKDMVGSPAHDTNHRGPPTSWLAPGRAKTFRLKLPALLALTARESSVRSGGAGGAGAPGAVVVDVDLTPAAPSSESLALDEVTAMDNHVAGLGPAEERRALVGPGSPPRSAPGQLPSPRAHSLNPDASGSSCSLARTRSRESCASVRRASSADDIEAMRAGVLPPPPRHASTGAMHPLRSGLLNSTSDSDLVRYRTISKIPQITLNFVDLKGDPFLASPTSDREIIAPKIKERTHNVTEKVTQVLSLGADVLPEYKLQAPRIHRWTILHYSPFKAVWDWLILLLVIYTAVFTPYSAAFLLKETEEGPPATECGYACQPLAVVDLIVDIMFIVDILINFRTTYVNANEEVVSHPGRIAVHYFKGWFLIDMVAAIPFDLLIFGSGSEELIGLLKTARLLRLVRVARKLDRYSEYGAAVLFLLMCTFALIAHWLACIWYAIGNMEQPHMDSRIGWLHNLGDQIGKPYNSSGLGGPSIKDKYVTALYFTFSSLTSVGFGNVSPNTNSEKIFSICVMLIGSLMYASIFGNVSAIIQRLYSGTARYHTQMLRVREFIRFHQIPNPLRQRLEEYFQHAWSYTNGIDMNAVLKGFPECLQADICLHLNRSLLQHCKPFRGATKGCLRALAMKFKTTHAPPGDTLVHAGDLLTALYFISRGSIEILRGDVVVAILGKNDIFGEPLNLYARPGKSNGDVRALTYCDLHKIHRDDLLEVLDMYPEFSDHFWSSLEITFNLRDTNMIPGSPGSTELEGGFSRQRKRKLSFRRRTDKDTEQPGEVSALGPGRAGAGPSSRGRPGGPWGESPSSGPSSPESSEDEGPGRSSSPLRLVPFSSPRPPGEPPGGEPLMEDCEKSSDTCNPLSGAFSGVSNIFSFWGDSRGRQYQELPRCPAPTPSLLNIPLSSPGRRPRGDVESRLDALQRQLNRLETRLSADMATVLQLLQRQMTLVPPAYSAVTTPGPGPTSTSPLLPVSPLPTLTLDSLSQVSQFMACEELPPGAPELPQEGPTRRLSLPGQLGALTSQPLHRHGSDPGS
Sequence of Mu-type opioid receptor (P35372 whole entry): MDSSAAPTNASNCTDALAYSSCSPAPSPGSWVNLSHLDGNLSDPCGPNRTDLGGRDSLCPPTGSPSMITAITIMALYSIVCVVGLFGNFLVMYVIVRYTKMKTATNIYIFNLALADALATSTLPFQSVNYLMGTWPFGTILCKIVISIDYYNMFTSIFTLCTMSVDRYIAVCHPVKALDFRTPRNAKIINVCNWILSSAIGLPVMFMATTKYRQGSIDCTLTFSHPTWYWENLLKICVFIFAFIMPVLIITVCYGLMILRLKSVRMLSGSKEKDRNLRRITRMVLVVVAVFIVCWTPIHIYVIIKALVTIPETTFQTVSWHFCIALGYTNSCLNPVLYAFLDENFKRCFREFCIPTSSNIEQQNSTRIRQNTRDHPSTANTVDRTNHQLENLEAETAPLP
Sequence of 5-hydroxytryptamine receptor 2A (P28223 whole entry): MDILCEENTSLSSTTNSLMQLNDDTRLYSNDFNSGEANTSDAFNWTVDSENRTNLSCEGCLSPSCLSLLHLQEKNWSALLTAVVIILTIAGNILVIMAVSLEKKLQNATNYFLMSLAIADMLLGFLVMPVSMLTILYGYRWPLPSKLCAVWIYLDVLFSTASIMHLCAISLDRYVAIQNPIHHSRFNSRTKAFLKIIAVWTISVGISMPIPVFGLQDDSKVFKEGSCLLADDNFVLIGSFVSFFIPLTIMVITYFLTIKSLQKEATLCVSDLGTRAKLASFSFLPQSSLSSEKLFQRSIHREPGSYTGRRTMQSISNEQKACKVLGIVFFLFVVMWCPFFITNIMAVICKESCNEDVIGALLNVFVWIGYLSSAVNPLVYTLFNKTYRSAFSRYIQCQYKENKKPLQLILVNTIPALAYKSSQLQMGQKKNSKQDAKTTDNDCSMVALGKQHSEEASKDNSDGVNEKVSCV
Sequence of Melanocortin receptor 3 (P41968 whole entry): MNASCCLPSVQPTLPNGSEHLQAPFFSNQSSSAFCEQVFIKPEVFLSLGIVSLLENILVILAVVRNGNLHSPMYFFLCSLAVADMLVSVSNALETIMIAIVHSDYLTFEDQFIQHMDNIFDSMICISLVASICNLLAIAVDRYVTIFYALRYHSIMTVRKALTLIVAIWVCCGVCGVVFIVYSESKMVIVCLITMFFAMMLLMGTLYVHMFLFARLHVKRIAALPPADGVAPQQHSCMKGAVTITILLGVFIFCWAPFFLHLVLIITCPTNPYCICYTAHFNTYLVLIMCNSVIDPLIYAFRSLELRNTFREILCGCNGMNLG
Sequence of Gamma-aminobutyric acid receptor subunit alpha-1 (P62813 whole entry): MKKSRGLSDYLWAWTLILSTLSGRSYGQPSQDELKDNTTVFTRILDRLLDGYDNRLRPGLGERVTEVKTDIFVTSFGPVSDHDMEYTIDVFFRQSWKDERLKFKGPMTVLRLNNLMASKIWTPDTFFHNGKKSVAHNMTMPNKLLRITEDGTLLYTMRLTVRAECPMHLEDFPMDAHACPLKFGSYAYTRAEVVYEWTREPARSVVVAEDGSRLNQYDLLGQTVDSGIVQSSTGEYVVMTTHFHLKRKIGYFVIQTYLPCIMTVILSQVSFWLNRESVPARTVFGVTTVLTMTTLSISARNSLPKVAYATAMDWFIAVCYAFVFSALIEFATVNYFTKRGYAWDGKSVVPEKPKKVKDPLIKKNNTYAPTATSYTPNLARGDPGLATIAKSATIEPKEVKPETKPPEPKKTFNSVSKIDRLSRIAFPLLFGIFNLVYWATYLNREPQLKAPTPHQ
Sequence of Muscarinic acetylcholine receptor M3 (P20309 whole entry): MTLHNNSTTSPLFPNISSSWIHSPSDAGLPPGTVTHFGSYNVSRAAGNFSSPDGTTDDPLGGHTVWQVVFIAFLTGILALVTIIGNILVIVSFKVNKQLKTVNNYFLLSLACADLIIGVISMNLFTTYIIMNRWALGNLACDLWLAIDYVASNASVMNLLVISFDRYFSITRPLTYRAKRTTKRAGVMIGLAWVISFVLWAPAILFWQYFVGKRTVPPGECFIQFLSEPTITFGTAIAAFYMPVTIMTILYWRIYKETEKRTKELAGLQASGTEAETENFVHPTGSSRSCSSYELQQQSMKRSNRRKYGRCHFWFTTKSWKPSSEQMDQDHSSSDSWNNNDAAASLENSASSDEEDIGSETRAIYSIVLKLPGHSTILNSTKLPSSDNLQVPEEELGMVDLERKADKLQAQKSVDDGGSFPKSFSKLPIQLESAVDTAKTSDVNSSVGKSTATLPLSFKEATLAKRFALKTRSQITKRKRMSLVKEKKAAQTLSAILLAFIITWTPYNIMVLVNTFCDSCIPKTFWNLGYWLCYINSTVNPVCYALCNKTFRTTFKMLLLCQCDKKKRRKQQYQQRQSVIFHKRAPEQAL
Sequence of Sodium-dependent serotonin transporter (P31645 whole entry): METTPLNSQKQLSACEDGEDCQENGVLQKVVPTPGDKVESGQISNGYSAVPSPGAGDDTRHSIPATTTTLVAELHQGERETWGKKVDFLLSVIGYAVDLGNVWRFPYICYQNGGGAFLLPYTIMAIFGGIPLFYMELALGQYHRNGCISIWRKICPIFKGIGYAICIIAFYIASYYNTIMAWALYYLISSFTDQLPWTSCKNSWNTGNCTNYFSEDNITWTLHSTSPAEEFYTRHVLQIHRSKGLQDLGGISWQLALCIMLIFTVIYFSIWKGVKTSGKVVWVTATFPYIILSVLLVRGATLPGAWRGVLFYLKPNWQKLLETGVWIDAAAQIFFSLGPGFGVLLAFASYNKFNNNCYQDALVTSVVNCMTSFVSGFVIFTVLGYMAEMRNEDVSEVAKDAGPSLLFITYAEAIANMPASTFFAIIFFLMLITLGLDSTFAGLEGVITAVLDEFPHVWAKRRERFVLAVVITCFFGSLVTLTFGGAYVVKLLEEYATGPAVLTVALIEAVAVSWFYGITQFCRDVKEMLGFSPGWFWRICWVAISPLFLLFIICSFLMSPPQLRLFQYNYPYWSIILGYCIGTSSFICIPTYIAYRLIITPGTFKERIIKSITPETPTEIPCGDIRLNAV

| Molecule | AC50 [1] [µM] | AC50 [2] [µM] | AC50 [3] [µM] | AC50 [4] [µM] | AC50 [5] [µM] | AC50 ([6]; read-out: AC50) [µM] | AC50 [7] [µM] | AC50 [8] [µM] | AC50 [9] [µM] | AC50 [10] [µM] | AC50 [11] [µM] | AC50 [12] [µM] | AC50 [13] [µM] | AC50 [14] [µM] | AC50 [15] [µM] | AC50 ([6]; human, cellular components) [µM] |
| --- | --- | --- | --- | --- | --- | --- | --- | --- | --- | --- | --- | --- | --- | --- | --- | --- |
| CC(C)(Oc1ccc(C2CC2(Cl)Cl)cc1)C(=O)O (stereo not drawn) [CIPROFIBRATE] | > 30 | > 30 | > 30 | > 30 | > 30 | > 30 | > 30 | > 30 | > 30 | > 30 | > 30 | > 30 | – | – | – | – |
| CN1C(=O)CC(=O)N(c2ccccc2)c2cc(Cl)ccc21 [CLOBAZAM] | > 10 | > 10 | 0.3 | > 30 | – | > 30 | > 10 | > 10 | > 10 | – | > 10 | > 10 | > 30 | > 10 | > 10 | – |
| COC(=O)[C@H]1[C@@H](OC(=O)c2ccccc2)C[C@@H]2CC[C@H]1N2C [COCAINE] | > 30 | > 30 | > 30 | > 30 | > 30 | – | > 30 | > 30 | > 30 | > 30 | > 30 | > 30 | > 30 | – | > 30 | – |
| [H]/N=C(/N)c1ccc(NCc2nc3cc(C(=O)N(CCC(=O)O)c4ccccn4)ccc3n2C)cc1 [DABIGATRAN] | > 30 | > 30 | > 30 | > 30 | – | > 30 | > 30 | – | > 30 | > 30 | > 30 | > 30 | > 30 | > 30 | – | – |
| Cc1c(O)c(=O)ccn1C [DEFERIPRONE] | > 30 | > 30 | > 30 | > 30 | > 30 | > 30 | > 30 | > 30 | > 30 | > 30 | > 30 | > 30 | – | – | – | – |
| C#CC1(OC(N)=O)CCCCC1 [ETHINAMATE] | > 10 | > 10 | > 10 | > 30 | – | > 30 | > 10 | > 10 | > 10 | – | > 10 | > 10 | > 30 | > 10 | > 10 | – |
| CN1CC[C@]23CCCC[C@H]2[C@H]1Cc1ccc(O)cc13 [LEVORPHANOL] | 0.652 | > 10 | > 10 | > 30 | – | 13.4 | > 30 | > 10 | > 10 | – | > 10 | > 10 | > 30 | 0.173 | > 10 | – |
| CC/C=C\C/C=C\C/C=C\CCCCCCCC(=O)O [LINOLENIC ACID] | > 30 | > 30 | > 30 | > 30 | > 30 | > 30 | > 30 | – | > 30 | > 30 | > 30 | > 30 | > 30 | – | > 30 | – |
| C[C@]12CCC(=O)C=C1CC[C@@H]1[C@@H]2CC[C@@]2(C)[C@H]1CC[C@]2(C)O [METHYLTESTOSTERONE] | > 30 | > 30 | > 30 | > 30 | > 30 | > 30 | > 30 | > 30 | > 30 | > 30 | > 30 | > 30 | – | – | – | – |
| COc1c(C)c2c(c(O)c1C/C=C(\C)CCC(=O)OCCN1CCOCC1)C(=O)OC2 [MYCOPHENOLATE MOFETIL] | > 30 | > 30 | > 30 | > 30 | > 30 | 13 | > 30 | > 30 | > 30 | > 30 | > 30 | > 30 | – | – | – | – |
| CN1CCC2=C(C1)C(c1ccccc1)c1ccccc12 (stereo not drawn) [PHENINDAMINE] | > 10 | > 10 | > 10 | > 30 | – | > 30 | > 30 | > 10 | > 10 | – | > 10 | > 10 | > 30 | > 30 | > 10 | – |
| CN1C(=O)CC(c2ccccc2)C1=O (stereo not drawn) [PHENSUXIMIDE] | > 10 | > 10 | > 10 | > 30 | – | > 30 | > 10 | > 10 | > 10 | – | > 10 | > 10 | > 30 | > 10 | > 10 | – |
| C#CCN[C@@H]1CCc2ccccc21 [RASAGILINE] | > 30 | > 30 | > 30 | > 30 | > 30 | > 30 | > 30 | > 30 | > 30 | – | > 30 | > 30 | > 30 | – | > 30 | – |
| Cc1c(C(=O)Nc2ccc(N3C[C@@H](C)O[C@@H](C)C3)nc2)cccc1-c1ccc(OC(F)(F)F)cc1 [SONIDEGIB] | > 10 | > 10 | > 10 | – | – | – | > 30 | > 10 | – | – | > 30 | > 30 | – | > 10 | – | – |
| CC[C@]1(O)C[C@@H]2CN(CCc3c([nH]c4ccccc34)[C@@](C(=O)OC)(c3cc4c(cc3OC)N(C)[C@H]3[C@@](O)(C(N)=O)[C@H](O)[C@]5(CC)C=CCN6CC[C@]43[C@@H]65)C2)C1 [VINDESINE] | > 30 | > 30 | > 30 | > 30 | > 30 | 14.9 | > 30 | > 30 | > 30 | > 30 | > 30 | > 30 | – | – | – | – |
| TOCOFERSOLAN | > 30 | > 30 | > 30 | > 30 | > 30 | – | > 30 | > 30 | > 30 | > 30 | > 30 | > 30 | > 30 | – | > 30 | > 30 |
